We go through 5 compounds from ChEMBL document CHEMBL3232941, “Docking and SAR studies of calystegines: binding orientation and influence on pharmacological chaperone effects for Gaucher's disease” (Bioorg Med Chem, 2014).

Each structure is given as a SMILES string. Bounds are passed on as bounds.

By IC50 is commonly meant the concentration that gives 50% inhibition. Low readings indicate higher potency, high ones lower potency. What is called Ki is a dissociation constant, usually derived from enzyme kinetics or from competition with a known ligand. Read a low Ki as higher affinity. As usually defined, the inhibition is the drop in the measured response relative to a control, in per cent. A high value points to a response far below the control.

Test [1] deals with T1, Lysosomal acid glucosylceramidase (Homo sapiens, UniProt P04062).
T1 sequence (P04062 whole entry): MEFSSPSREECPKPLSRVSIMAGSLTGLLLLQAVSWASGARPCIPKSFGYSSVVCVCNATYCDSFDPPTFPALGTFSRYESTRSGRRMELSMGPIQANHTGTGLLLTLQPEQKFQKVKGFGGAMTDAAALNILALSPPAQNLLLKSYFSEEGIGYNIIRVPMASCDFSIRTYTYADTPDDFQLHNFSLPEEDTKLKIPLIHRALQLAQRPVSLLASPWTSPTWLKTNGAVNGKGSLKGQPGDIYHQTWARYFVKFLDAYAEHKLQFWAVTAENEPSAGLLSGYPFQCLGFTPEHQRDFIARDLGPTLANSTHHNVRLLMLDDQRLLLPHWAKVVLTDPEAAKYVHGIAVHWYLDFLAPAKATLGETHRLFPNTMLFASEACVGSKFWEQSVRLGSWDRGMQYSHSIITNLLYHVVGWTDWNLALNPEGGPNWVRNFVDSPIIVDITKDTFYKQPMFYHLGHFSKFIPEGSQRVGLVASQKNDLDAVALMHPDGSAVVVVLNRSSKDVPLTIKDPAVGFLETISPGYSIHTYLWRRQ
As to the kind of experiment: Inhibition of human lysosomal beta-glucocerebrosidase using 4-methylumbelliferyl-beta-D-glucopyranoside as substrate preincubated for 45 mins before substrate addition measured after 30 mins by fluorescence spectrophotometer analysis.

For test [2], the target named is T1, Lysosomal acid glucosylceramidase. The test is described as follows: Competitive inhibition of human lysosomal beta-glucocerebrosidase using 4-methylumbelliferyl-beta-D-glucopyranoside as substrate preincubated for 45 mins before substrate addition measured after 30 mins by double-reciprocal plot analysis.
The target in test [3] is T2, Lysosomal acid glucosylceramidase (Homo sapiens) (UniProt P04062).
T2 sequence (whole entry): T1 sequence (P04062 whole entry)
The test is described as follows: Inhibition of human lysosomal beta-glucocerebrosidase using 4-methylumbelliferyl-beta-D-glucopyranoside as substrate at 1000 uM preincubated for 45 mins before substrate addition measured after 30 mins by fluorescence spectrophotometer analysis.

`O[C@@H]1[C@@H](O)[C@H]2CC[C@](O)(N2)[C@@H]1O`: the IC50 in test [1] was determined as 616 µM. This compound also returned a Ki in test [2] of 199 µM.
In the same order, the values of `O[C@@H]1[C@H](O)[C@H]2CC[C@](O)(N2)[C@H]1O` are 175 µM and 98 µM.
The like results for `O[C@@H]1[C@@H](O)[C@H](O)[C@]2(O)CC[C@H]1N2` [CALYSTEGINE B2] were, in that order, 5.1 µM and 3.8 µM.
In the same order, the values of `O[C@@H]1C[C@H]2CC[C@](O)(N2)[C@H]1O` are 16 µM and 6.3 µM.
For `O[C@@H]1[C@@H](O)C[C@]2(O)CC[C@H]1N2`, the inhibition in test [3] was less than 50%.
